Experiments:
[1] = mn = molality of the nth substance listed, in mol/kg; conditions: 100 kPa, Liquid; for viscosity: Capillary tube (Ostwald / Ubbelohde) method; for mass density: Vibrating tube method
[2] = 101 kPa, Liquid, Capillary tube (Ostwald / Ubbelohde) method

CCCCn1cc[n+](C)c1.[Br-] [1-butyl-3-methylimidazolium bromide] + O
[1]
Conditions	mass density, m1 = 0.0046 [kg/m3]	mass density, m1 = 0.0141 [kg/m3]	mass density, m1 = 0.0231 [kg/m3]	viscosity, m1 = 0.0046 [mPa·s]	viscosity, m1 = 0.0141 [mPa·s]	viscosity, m1 = 0.0231 [mPa·s]
288.15 K	999.318	999.804	1000.22	1.14	1.146	1.148
293.15 K	998.492	998.891	999.304	1.003	1.008	1.012
298.15 K	997.279	997.685	998.078	0.891	0.895	0.897
303.15 K	995.876	996.322	996.69	0.8	0.8	0.804
308.15 K	994.252	994.678	995.112	0.721	0.722	0.725
313.15 K	992.415	992.871	993.178	0.654	0.656	0.657

O [water]
[2]
Conditions	viscosity [mPa·s]
288.15 K	1.138
293.15 K	1.001
298.15 K	0.89
303.15 K	0.797
308.15 K	0.719
313.15 K	0.653

O [water] + CCCCn1cc[n+](C)c1.[Br-]
[1], m2 = 0
Conditions	viscosity [mPa·s]
288.15 K	1.138
293.15 K	1.001
298.15 K	0.89
303.15 K	0.797
308.15 K	0.719
313.15 K	0.653
